This is an account of results in patent publication US6339160B1 (priority 1997, dated 2002).

pIC50: −log10 of the molar value.

The target of one experiment is T1, Gelatinase A (MMP-2) (Homo sapiens, UniProt P08253).
T1 construct: G. Murphy (Strangeways Labs., Cambridge, UK); host or cells: human cultures
T1 sequence (P08253 110-660): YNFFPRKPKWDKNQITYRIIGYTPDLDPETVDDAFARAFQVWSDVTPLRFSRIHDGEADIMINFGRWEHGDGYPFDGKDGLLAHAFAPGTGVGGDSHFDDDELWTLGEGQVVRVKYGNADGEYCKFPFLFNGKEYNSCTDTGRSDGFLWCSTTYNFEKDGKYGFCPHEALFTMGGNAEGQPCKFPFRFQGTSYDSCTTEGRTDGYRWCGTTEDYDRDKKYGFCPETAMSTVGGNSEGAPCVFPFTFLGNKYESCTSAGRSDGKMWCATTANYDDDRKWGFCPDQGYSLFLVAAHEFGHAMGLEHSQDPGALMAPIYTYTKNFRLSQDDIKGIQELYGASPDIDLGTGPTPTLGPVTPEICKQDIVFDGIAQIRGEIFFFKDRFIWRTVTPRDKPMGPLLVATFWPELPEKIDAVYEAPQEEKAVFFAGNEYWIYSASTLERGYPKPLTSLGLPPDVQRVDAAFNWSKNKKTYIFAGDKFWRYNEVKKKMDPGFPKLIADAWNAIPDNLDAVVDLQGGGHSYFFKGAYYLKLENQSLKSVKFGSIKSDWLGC
Nature of the experiment: Inhibition of the human enzyme Gelatinase A (MMP-2), fluorescent substrate. Format: biochemical. The settings on record: expressed qualitatively; compounds incubated 3 hours at room temperature with enzyme before substrate. The procedure:
(§1) The snythetized compounds were also tested on the enzyme of human orgin Gelatinase A, known also as MMP-2 (Matrix Metalloproteinase n. 2). The pure enzyme, extracted from human cultures and obtained from Pro. G. Murphy (Strangeways Labs., Cambridge, UK), was first activated with p-amino-mercuryacetate, and proteolytic activity was evidentiated with the use of an artificial fluorescent substratum MCA-PRO-LEU-GLY-LEU-DPA-ALA-ARG-NH2 (Strangeways Labs.), in spectrofluorimeter Perkin Elmer L 50B fixed at 328 nm for excitation and 393 nm for emission. To test inhibitory activity, synthetized compounds were incubated for 3 hours at room temperature in the presence of the enzyme, before adding the substratum.

The target in experiment [1] is T2, Collagenase from neutrophiles (MMP-8) (Homo sapiens, UniProt P22894).
T2 construct: G. Murphy (Strangeways Labs., Cambridge, UK); host or cells: human cell cultures
T2 sequence (P22894 101-467): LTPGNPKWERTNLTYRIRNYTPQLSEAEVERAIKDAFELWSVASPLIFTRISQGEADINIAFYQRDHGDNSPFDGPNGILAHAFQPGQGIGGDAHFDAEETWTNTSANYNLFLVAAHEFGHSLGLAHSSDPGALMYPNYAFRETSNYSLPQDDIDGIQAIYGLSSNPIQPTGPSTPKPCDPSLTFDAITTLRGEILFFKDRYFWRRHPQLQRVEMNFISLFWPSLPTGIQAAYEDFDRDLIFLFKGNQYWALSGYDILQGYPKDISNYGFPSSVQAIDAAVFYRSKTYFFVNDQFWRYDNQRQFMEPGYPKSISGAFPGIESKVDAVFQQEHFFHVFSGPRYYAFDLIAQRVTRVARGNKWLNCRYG
Nature of the experiment: Inhibition of human enzyme Collagenase from neutrophiles (MMP-8), fluorescent substrate. Type of experiment: biochemical. The settings on record: expressed qualitatively; enzyme activated with p-aminomercuryacetate. The procedure: as §1
The new synthetized derivatives were also tested on another zinc-dependent metalloproteinase of human orgin: the Collagenase from neutrophiles, also known as MMP-8 (Matrix Metalloproteinase N. 8). The pure enzyme extracted from human cell cultures and obtained from Prof. G. Murphy (Strangeways Labs., Cambridge, UK), was activated with p-aminomercuryacetate (2 hours at 37° C.), and enzymatic activity was followed by the spectrofluorimeter in the same way as described in the previous chapter.

A further experiment has as its target Adamalysin II (Crotalus adamanteus, UniProt P34179). Nature of the experiment: biochemical.

A word on the pIC50: it is the IC50 on a negative log10 scale, so that one unit is a factor of ten. A lower pIC50 goes with a large IC50.

Chain of Adamalysin II (P34179 whole entry, looked up): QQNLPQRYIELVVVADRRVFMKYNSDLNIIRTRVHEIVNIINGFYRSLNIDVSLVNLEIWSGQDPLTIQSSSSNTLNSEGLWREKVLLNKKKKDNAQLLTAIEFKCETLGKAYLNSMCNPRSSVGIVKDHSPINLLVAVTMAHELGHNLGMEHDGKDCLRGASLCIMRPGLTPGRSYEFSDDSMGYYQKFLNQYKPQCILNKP

Regarding `CCOP(=O)(OCC)C(Cc1c[nH]c2ccccc12)NC(=O)[C@H](CC(C)C)NC(=O)c1ccco1` (stereo partly drawn) [Compound n.3a, N-[(furan-2-yl)carbonyl]-L-leucyne-(1)-phosphotryptophan diethylester], the INHIBITION result (at Gelatinase A (MMP-2); in experiment [1]) was “Fair” each time. Further, the pIC50 against Adamalysin II was 6.40.
Consider `CCOP(=O)(OCC)C(Cc1c[nH]c2ccccc12)NC(=O)[C@H](CC(C)C)NC(=O)c1ccc[nH]1` (stereo partly drawn) [Compound n.3b, N-[(Pyrrol-2-yl)carbonyl]-L-leucyl-(1)-phosphotryptophan diethylester], for which the INHIBITION result (at Gelatinase A (MMP-2); in experiment [1]) was “Good” throughout. This compound showed a pIC50 against Adamalysin II of 6.66.
For `CCOP(=O)(OCC)C(Cc1c[nH]c2ccccc12)NC(=O)[C@H](CC(C)C)NC(=O)[C@@H]1CCCN1C(=O)OCc1ccccc1` (stereo partly drawn) [Compound n.3c, N-benzyloxycarbonyl-L-pyrolyl-L-eucyl-(1)-phosphtryptophan diethylester], the INHIBITION result (at Gelatinase A (MMP-2); in experiment [1]) was “Good” each time. Besides, on Adamalysin II, the negative logarithm of the IC50 (pIC50) was 4.66.
Regarding `CCOP(=O)(OCC)C(Cc1c[nH]c2ccccc12)NC(=O)[C@H](CC(C)C)NC(=O)[C@@H]1CCC(=O)O1` (stereo partly drawn) [Compound n.3e, N-{[(S)-(5-oxo-tetrahydrofuran-2-yl)carbonyl]}-L-leucyl-(1)-phosphotryptophan diethylester], the INHIBITION result (at Gelatinase A (MMP-2); in experiment [1]) was “Fair” in each case. Besides, at Adamalysin II, the negative-log IC50 (pIC50) is 6.26.
For the compound `CCOP(=O)(OCC)C(Cc1c[nH]c2ccccc12)NC(=O)[C@H](CC(C)C)NC(=O)[C@@H]1CSC(=O)N1` (stereo partly drawn) [Compound n.3f, N-{[(R)-(2-oxo-thiazolidine-4-yl)carbonyl]}-L-leucyl-(1)-phosphotryptophan diethylester], the INHIBITION result on Gelatinase A (MMP-2) is listed as “Fair”; in experiment [1], “Good”. Also, the pIC50 against Adamalysin II is 6.00.
For `CC(C)C[C@H](NC(=O)c1ccco1)C(=O)NC(Cc1c[nH]c2ccccc12)P(=O)(OCc1ccccc1)OCc1ccccc1` (stereo partly drawn) [Compound n.9, N-[(Furan-2-yl)carbonyl]-L-leucyl-(1)-phosphotryptophan dibenzylester], in that order: “None”, “Fair” and 5.14.
